Results published in PubChem BioAssay (NCI).
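Where inhibition never reached the appropriate level, the endpoint shown equals the highest concentration tested. Otherwise, values were interpolated linearly from a five-concentration, 48-hour dose response in 96-well plates. TGI: total growth inhibition.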

Columns and labels:
Test in all cases: DTP human tumour cell line panel, 48 h
HCT-116 colon = system: HCT-116 colon
SK-MEL-2 melanoma = system: SK-MEL-2 melanoma
DU-145 prostate = system: DU-145 prostate
OVCAR-5 ovarian = system: OVCAR-5 ovarian
M14 melanoma = system: M14 melanoma
OVCAR-3 ovarian = system: OVCAR-3 ovarian
SF-295 CNS = system: SF-295 CNS
RXF 393 renal = system: RXF 393 renal
MDA-MB-231 breast = system: MDA-MB-231 breast
COLO 205 colon = system: COLO 205 colon
A498 renal = system: A498 renal
MDA-MB-435 = system: MDA-MB-435
SK-OV-3 ovarian = system: SK-OV-3 ovarian
HCT-15 colon = system: HCT-15 colon
MOLT-4 leukemia = system: MOLT-4 leukemia
HOP-92 NSCLC = system: HOP-92 NSCLC
MCF7 breast = system: MCF7 breast
HL-60(TB) leukemia = system: HL-60(TB) leukemia
NCI/ADR-RES ovarian = system: NCI/ADR-RES ovarian
K-562 leukemia = system: K-562 leukemia
UACC-62 melanoma = system: UACC-62 melanoma
KM12 colon = system: KM12 colon
LOX IMVI melanoma = system: LOX IMVI melanoma
ACHN renal = system: ACHN renal
TK-10 renal = system: TK-10 renal
EKVX NSCLC = system: EKVX NSCLC
UO-31 renal = system: UO-31 renal
CAKI-1 renal = system: CAKI-1 renal
NCI-H460 lung = system: NCI-H460 lung
SK-MEL-5 melanoma = system: SK-MEL-5 melanoma
SR leukemia = system: SR leukemia
OVCAR-4 ovarian = system: OVCAR-4 ovarian
786-0 renal = system: 786-0 renal
SF-539 CNS = system: SF-539 CNS
UACC-257 melanoma = system: UACC-257 melanoma
SNB-19 CNS = system: SNB-19 CNS
U251 CNS = system: U251 CNS
SNB-75 CNS = system: SNB-75 CNS
MDA-N = system: MDA-N
HT29 colon = system: HT29 colon
SK-MEL-28 melanoma = system: SK-MEL-28 melanoma
CCRF-CEM leukemia = system: CCRF-CEM leukemia
A549 NSCLC = system: A549 NSCLC
NCI-H226 lung = system: NCI-H226 lung
SN12C renal = system: SN12C renal
IGROV1 ovarian = system: IGROV1 ovarian
SW-620 colon = system: SW-620 colon
OVCAR-8 ovarian = system: OVCAR-8 ovarian
NCI-H522 lung = system: NCI-H522 lung
SF-268 CNS = system: SF-268 CNS
BT-549 breast = system: BT-549 breast
PC-3 prostate = system: PC-3 prostate
HS 578T breast = system: HS 578T breast
HCC-2998 colon = system: HCC-2998 colon
NCI-H23 lung = system: NCI-H23 lung
RPMI-8226 leukemia = system: RPMI-8226 leukemia

## CCCCOCn1c(=O)[nH]c(=O)c2ccccc21
HCT-116 colon
  TGI: > 100 µM
SK-MEL-2 melanoma
  TGI: > 100 µM
DU-145 prostate
  TGI: > 100 µM
OVCAR-5 ovarian
  TGI: > 100 µM
M14 melanoma
  TGI: > 100 µM
OVCAR-3 ovarian
  TGI: > 100 µM
SF-295 CNS
  TGI: > 100 µM
RXF 393 renal
  TGI: > 100 µM
MDA-MB-231 breast
  TGI: > 100 µM
COLO 205 colon
  TGI: > 100 µM
A498 renal
  TGI: > 100 µM
MDA-MB-435
  TGI: > 100 µM
SK-OV-3 ovarian
  TGI: > 100 µM
HCT-15 colon
  TGI: > 100 µM
MOLT-4 leukemia
  TGI: > 100 µM
HOP-92 NSCLC
  TGI: > 100 µM
MCF7 breast
  TGI: > 100 µM
HL-60(TB) leukemia
  TGI: > 100 µM
NCI/ADR-RES ovarian
  TGI: > 100 µM
K-562 leukemia
  TGI: > 100 µM
UACC-62 melanoma
  TGI: > 100 µM
KM12 colon
  TGI: > 100 µM
LOX IMVI melanoma
  TGI: > 100 µM
ACHN renal
  TGI: > 100 µM
TK-10 renal
  TGI: > 100 µM
EKVX NSCLC
  TGI: > 100 µM
UO-31 renal
  TGI: 46.7 µM
CAKI-1 renal
  TGI: > 100 µM
NCI-H460 lung
  TGI: > 100 µM
SK-MEL-5 melanoma
  TGI: > 100 µM
SR leukemia
  TGI: > 100 µM
OVCAR-4 ovarian
  TGI: > 100 µM
786-0 renal
  TGI: > 100 µM
SF-539 CNS
  TGI: > 100 µM
UACC-257 melanoma
  TGI: > 100 µM
SNB-19 CNS
  TGI: 55.5 µM
U251 CNS
  TGI: > 100 µM
SNB-75 CNS
  TGI: 82.9 µM
MDA-N
  TGI: > 100 µM
HT29 colon
  TGI: > 100 µM
SK-MEL-28 melanoma
  TGI: > 100 µM
CCRF-CEM leukemia
  TGI: > 100 µM
A549 NSCLC
  TGI: > 100 µM
NCI-H226 lung
  TGI: > 100 µM
SN12C renal
  TGI: > 100 µM
IGROV1 ovarian
  TGI: > 100 µM
SW-620 colon
  TGI: > 100 µM
OVCAR-8 ovarian
  TGI: > 100 µM

## COc1cc(C2SCC(=O)N2Cc2ccccc2)cc(OC)c1OC (stereo unspecified)
NCI-H522 lung
  TGI: > 100 µM
SF-268 CNS
  TGI: > 100 µM
BT-549 breast
  TGI: > 100 µM
PC-3 prostate
  TGI: > 100 µM
HCT-116 colon
  TGI: > 100 µM
SK-MEL-2 melanoma
  TGI: > 100 µM
DU-145 prostate
  TGI: > 100 µM
OVCAR-5 ovarian
  TGI: > 100 µM
M14 melanoma
  TGI: > 100 µM
OVCAR-3 ovarian
  TGI: > 100 µM
SF-295 CNS
  TGI: > 100 µM
MDA-MB-231 breast
  TGI: > 100 µM
COLO 205 colon
  TGI: > 100 µM
MDA-MB-435
  TGI: > 100 µM
SK-OV-3 ovarian
  TGI: > 100 µM
HS 578T breast
  TGI: > 100 µM
HCT-15 colon
  TGI: > 100 µM
MOLT-4 leukemia
  TGI: > 100 µM
HOP-92 NSCLC
  TGI: 71.8 µM
MCF7 breast
  TGI: > 100 µM
HL-60(TB) leukemia
  TGI: > 100 µM
NCI/ADR-RES ovarian
  TGI: > 100 µM
K-562 leukemia
  TGI: > 100 µM
UACC-62 melanoma
  TGI: > 100 µM
KM12 colon
  TGI: > 100 µM
LOX IMVI melanoma
  TGI: > 100 µM
HCC-2998 colon
  TGI: > 100 µM
ACHN renal
  TGI: > 100 µM
TK-10 renal
  TGI: > 100 µM
EKVX NSCLC
  TGI: > 100 µM
UO-31 renal
  TGI: > 100 µM
CAKI-1 renal
  TGI: > 100 µM
NCI-H460 lung
  TGI: > 100 µM
SK-MEL-5 melanoma
  TGI: > 100 µM
SR leukemia
  TGI: > 100 µM
OVCAR-4 ovarian
  TGI: > 100 µM
786-0 renal
  TGI: > 100 µM
SF-539 CNS
  TGI: > 100 µM
UACC-257 melanoma
  TGI: > 100 µM
SNB-19 CNS
  TGI: > 100 µM
U251 CNS
  TGI: > 100 µM
MDA-N
  TGI: > 100 µM
HT29 colon
  TGI: > 100 µM
SK-MEL-28 melanoma
  TGI: > 100 µM
CCRF-CEM leukemia
  TGI: > 100 µM
A549 NSCLC
  TGI: > 100 µM
NCI-H226 lung
  TGI: > 100 µM
SN12C renal
  TGI: > 100 µM
IGROV1 ovarian
  TGI: > 100 µM
NCI-H23 lung
  TGI: > 100 µM
SW-620 colon
  TGI: > 100 µM
OVCAR-8 ovarian
  TGI: > 100 µM
RPMI-8226 leukemia
  TGI: > 100 µM
